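Dose response: 5 concentrations. Exposure: 48 h. Format: 96-well plates. Endpoint: linear interpolation; highest concentration if not reached. GI50 = concentration required for 50% inhibition of growth. TGI is the concentration that stops growth completely.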
How the values were obtained:
Test in all cases: NCI-60 cell line screen, 48 h
[1] = system: MDA-MB-231 breast
[2] = system: RXF-631 renal
[3] = system: A498 renal
[4] = system: U251 CNS
[5] = system: COLO 205 colon
[6] = system: 786-0 renal
[7] = system: HL-60(TB) leukemia
[8] = system: SF-268 CNS
[9] = system: MALME-3M melanoma
[10] = system: NCI-H23 lung
[11] = system: SF-539 CNS
[12] = system: MDA-N
[13] = system: MCF7 breast
[14] = system: SK-MEL-28 melanoma
[15] = system: HCC-2998 colon
[16] = system: PC-3 prostate
[17] = system: SW-620 colon
[18] = system: HOP-62 NSCLC
[19] = system: OVCAR-4 ovarian
[20] = system: SR leukemia
[21] = system: NCI-H522 lung
[22] = system: SK-MEL-2 melanoma
[23] = system: SF-295 CNS
[24] = system: OVCAR-3 ovarian
[25] = system: SNB-75 CNS
[26] = system: CAKI-1 renal
[27] = system: DU-145 prostate
[28] = system: HT29 colon
[29] = system: MOLT-4 leukemia
[30] = system: DMS 273 small cell lung
[31] = system: EKVX NSCLC
[32] = system: HCT-116 colon
[33] = system: M19-MEL melanoma
[34] = system: TK-10 renal
[35] = system: BT-549 breast
[36] = system: A549 NSCLC
[37] = system: NCI-H460 lung
[38] = system: M14 melanoma
[39] = system: ACHN renal
[40] = system: SNB-19 CNS
[41] = system: T-47D breast
[42] = system: HCT-15 colon
[43] = system: NCI/ADR-RES ovarian
[44] = system: UACC-62 melanoma
[45] = system: LXFL 529 NSCLC
[46] = system: CCRF-CEM leukemia
[47] = system: RPMI-8226 leukemia
[48] = system: MDA-MB-435
[49] = system: UO-31 renal
[50] = system: HOP-92 NSCLC
[51] = system: OVCAR-5 ovarian
[52] = system: SNB-78 CNS
[53] = system: UACC-257 melanoma
[54] = system: HS 578T breast
[55] = system: SN12C renal
[56] = system: IGROV1 ovarian
[57] = system: RXF 393 renal
[58] = system: LOX IMVI melanoma
[59] = system: DLD-1 colon
[60] = system: K-562 leukemia
[61] = system: OVCAR-8 ovarian
[62] = system: NCI-H226 lung
[63] = system: DMS 114 small cell lung
[64] = system: XF 498 CNS
[65] = system: KM12 colon
[66] = system: SK-MEL-5 melanoma
[67] = system: SK-OV-3 ovarian
[68] = system: KM20L2 colon

## O=P(O)(NCCCl)NCCCl
[1]
  TGI: > 100 µM
[2]
  TGI: > 100 µM
[3]
  TGI: > 100 µM
[4]
  GI50: > 100 µM
  TGI: > 100 µM
[5]
  TGI: > 100 µM
[6]
  TGI: > 100 µM
[7]
  TGI: > 100 µM
[8]
  TGI: > 100 µM
[9]
  TGI: > 100 µM
[10]
  TGI: > 100 µM
[11]
  TGI: > 100 µM
[12]
  TGI: > 100 µM
[13]
  TGI: > 100 µM
[14]
  TGI: > 100 µM
[15]
  TGI: > 100 µM
[16]
  TGI: > 100 µM
[17]
  GI50: > 100 µM
  TGI: > 100 µM
[18]
  TGI: > 100 µM
[19]
  TGI: > 100 µM
[20]
  GI50: 40.6 µM
  TGI: > 100 µM
[21]
  TGI: > 100 µM
[22]
  TGI: > 100 µM
[23]
  TGI: > 100 µM
[24]
  GI50: > 100 µM
  TGI: > 100 µM
[25]
  GI50: 7.07 µM
  TGI: > 100 µM
[26]
  TGI: > 100 µM
[27]
  TGI: > 100 µM
[28]
  GI50: > 100 µM
  TGI: > 100 µM
[29]
  TGI: > 100 µM
[30]
  TGI: > 100 µM
[31]
  GI50: > 100 µM
  TGI: > 100 µM
[32]
  TGI: > 100 µM
[33]
  GI50: > 100 µM
  TGI: > 100 µM
[34]
  GI50: > 100 µM
  TGI: > 100 µM
[35]
  TGI: > 100 µM
[36]
  TGI: > 100 µM
[37]
  GI50: 4.03 µM
  TGI: > 100 µM
[38]
  GI50: 5.78 µM
  TGI: > 100 µM
[39]
  TGI: > 100 µM
[40]
  GI50: > 100 µM
  TGI: > 100 µM
[41]
  TGI: > 100 µM
[42]
  GI50: > 100 µM
  TGI: > 100 µM
[43]
  TGI: > 100 µM
[44]
  TGI: > 100 µM
[45]
  GI50: > 100 µM
  TGI: > 100 µM
[46]
  TGI: > 100 µM
[47]
  TGI: > 100 µM
[48]
  TGI: > 100 µM
[49]
  TGI: > 100 µM
[50]
  TGI: > 100 µM
[51]
  GI50: > 100 µM
  TGI: > 100 µM
[52]
  GI50: > 100 µM
  TGI: > 100 µM
[53]
  GI50: > 100 µM
  TGI: > 100 µM
[54]
  TGI: > 100 µM
[55]
  TGI: > 100 µM
[56]
  TGI: > 100 µM
[57]
  GI50: > 100 µM
  TGI: > 100 µM
[58]
  TGI: > 100 µM
[59]
  GI50: > 100 µM
  TGI: > 100 µM
[60]
  TGI: > 100 µM
[61]
  GI50: > 100 µM
  TGI: > 100 µM
[62]
  TGI: > 100 µM
[63]
  GI50: 99.1 µM
  TGI: > 100 µM
[64]
  GI50: > 100 µM
  TGI: > 100 µM
[65]
  GI50: > 100 µM
  TGI: > 100 µM
[66]
  GI50: > 100 µM
  TGI: > 100 µM
[67]
  TGI: > 100 µM

## Cc1cc(N(CCC#N)CCC#N)ccc1/C=C\C(=O)Nc1ccccc1
[2]
  TGI: > 100 µM
[3]
  TGI: > 100 µM
[4]
  TGI: > 100 µM
[5]
  TGI: > 100 µM
[6]
  TGI: > 100 µM
[7]
  TGI: > 100 µM
[8]
  TGI: > 100 µM
[9]
  TGI: > 100 µM
[10]
  TGI: > 100 µM
[11]
  TGI: > 100 µM
[14]
  TGI: > 100 µM
[15]
  TGI: 80.5 µM
[17]
  TGI: > 100 µM
[18]
  TGI: > 100 µM
[19]
  TGI: > 100 µM
[21]
  TGI: > 100 µM
[22]
  TGI: > 100 µM
[23]
  TGI: > 100 µM
[24]
  TGI: > 100 µM
[25]
  TGI: > 100 µM
[26]
  TGI: > 100 µM
[28]
  TGI: > 100 µM
[68]
  TGI: > 100 µM
[29]
  TGI: > 100 µM
[30]
  TGI: > 100 µM
[31]
  TGI: > 100 µM
[32]
  TGI: > 100 µM
[33]
  TGI: > 100 µM
[34]
  TGI: > 100 µM
[36]
  TGI: > 100 µM
[37]
  TGI: > 100 µM
[38]
  TGI: > 100 µM
[39]
  TGI: > 100 µM
[40]
  TGI: > 100 µM
[42]
  TGI: > 100 µM
[44]
  TGI: > 100 µM
[45]
  TGI: > 100 µM
[46]
  TGI: > 100 µM
[47]
  TGI: > 100 µM
[49]
  TGI: > 100 µM
[50]
  TGI: > 100 µM
[51]
  TGI: > 100 µM
[53]
  TGI: > 100 µM
[55]
  TGI: > 100 µM
[56]
  TGI: > 100 µM
[58]
  TGI: > 100 µM
[59]
  TGI: > 100 µM
[60]
  TGI: > 100 µM
[61]
  TGI: > 100 µM
[62]
  TGI: > 100 µM
[63]
  TGI: > 100 µM
[64]
  TGI: > 100 µM
[65]
  TGI: > 100 µM
[66]
  TGI: > 100 µM
[67]
  TGI: > 100 µM
